Laboratory results from patent US5917034A, “Antithrombotic n-amidinopiperidine and benzamidine derivatives” (Pfizer Inc., priority 1995, dated 1999).
Structures can show the parent of a compound that is named as a salt.

Key:
[1] = target: T1, bovine pancreatic trypsin (Bos taurus, UniProt P00760); experiment: Chromogenic assay, inhibition of trypsin; assay type: biochemical; settings: in vitro, substrate S2222, pH 8.0, 30° C.
T1 construct: from tissue; host or cells: bovine pancreas
T1 sequence (P00760 24-246): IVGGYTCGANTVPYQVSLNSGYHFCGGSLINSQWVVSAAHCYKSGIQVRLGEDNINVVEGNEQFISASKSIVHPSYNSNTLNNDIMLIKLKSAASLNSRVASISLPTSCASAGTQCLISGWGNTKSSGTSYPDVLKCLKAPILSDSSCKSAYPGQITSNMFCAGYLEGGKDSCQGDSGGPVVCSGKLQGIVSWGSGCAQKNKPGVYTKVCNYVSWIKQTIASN
Method: (§1) The inhibition of thrombin, trypsin, plasmin or factor Xa is measured in 96 well plate chromogenic assays. The percentage inhibition and IC50 are calculated from triplicate samples of an 8 concentration dose-response curve. From the substrate Km and IC50, the Ki for each inhibitor is calculated. All assays are carried out in a total incubation of 200 μl of 50 mM HEPES and 150 mM NaCl at pH 8.0, and all compound dilutions are preincubated with enzyme at room temperature for 15 minutes prior to addition of substrate. After 30 minutes incubation at 30° C., the O.D. is measured at […] in a 96 well plate reader. Thrombin activity is measured using bovine thrombin and S2238 (H-D-Phe-Pip-Arg-pNA), bovine pancreatic trypsin is assayed with S2222 (Benz-Isoleu-Glu-Gly-Arg-pNA), bovine plasma plasmin is assayed with Chromozym PL (Tosyl-Giy-Pro-Lys-pNA)and bovine factor Xa is assayed in 50 mM Tris, 150 mM NaCl, pH 7.5 buffer with S2222.
The following Table illustrates the in vitro inhibitory activities against thrombin and trypsin for a range of the compounds of the invention.

bovine thrombin = bovine thrombin (Bos taurus, UniProt P00735); experiment: Chromogenic assay, inhibition of thrombin; assay type: biochemical
Method: as §1

Ki [1]	Ki (bovine thrombin)	SMILES
1200 nM	4.1 nM	N=C(N)N1CCC(OCC[C@@H]2CCCCN2C(=O)[C@H](CC(=O)O)NC2CC3CCC2C3)CC1 (stereo partly drawn) [Example 3, N-[N-(2-Norbornyl)-(S)α-aspartyl]-2(S)-[2-(N-amidino-4-piperidyloxy)ethyl]piperidine dihydrochloride]
720 nM		N=C(N)N1CCC(OCCC2CCCCN2C(=O)[C@H](CC(=O)O)NC2CCCCCCC2)CC1 (mixture of isomers) [Example 16, N-(N-Cyclooctyl-(S)-α-aspartyl)-2(R,S)-[2-(N-amidino-4-piperidyloxy)ethyl]piperidine dihydrochloride]
360 nM	2 nM	CN(C1CCCC(C)(C)C1)[C@@H](CC(=O)O)C(=O)N1CCCC[C@H]1CCOC1CCN(C(=N)N)CC1 (stereo partly drawn) [Example 25, N-[N-Methyl-N-(3,3-dimethylcyclohexyl)-(S)-α-aspartyl]-2(S)-[2-(N-amidino-4-piperidyloxy)ethyl]piperidine dihydrochloride]
11000 nM	35 nM	N=C(N)N1CCC(OCCC2CCCCN2C(=O)[C@H](CC(=O)O)NC2CCCCC2O)CC1 (mixture of isomers) [Example 17, N-[N-(2-Hydroxycyclohexyl)-(S)-α-aspartyl]-2(R,S)-[2-(N-amidino-4-Piperidyloxy)ethyl]piperidine bis-trifluoroacetate]
5000 nM	16 nM	CCN(C1CCCCC1)[C@@H](CC(=O)O)C(=O)N1CCCCC1CCOC1CCN(C(=N)N)CC1 (mixture of isomers) [Example 29, N-(N-Cyclohexyl-N-ethyl-(S)-α-aspartyl)-2(R,S)-[2-(N-amidino-4-piperidyloxy)ethyl]piperidine dihydrochloride]
1300 nM	45 nM	N=C(N)c1ccc(OCCC2CCCCN2C(=O)[C@H](CC(=O)O)NC2CCCCC2)cc1 (mixture of isomers) [Example 31, N-(N-Cyclohexyl-(S)-α-aspartyl)-2(R,S)-[2-(4-amidinophenoxy)ethyl]piperidine dihydrochloride]
